Laboratory results as given in patent US7494996B2 (priority 2000, dated 2009).

Columns and labels:
Mexican Bean Beetle = test: Protocol 1 Mexican Bean Beetle (BB) foliar spray test; type: in vivo, Epilachna verivestis; settings: control rated after 48 hours (100 = all larvae dead)
Method: (§1) A test solution containing 1250 parts per million (ppm) was prepared by dissolving the test compound in […] of a second solvent (acetone: water, 1:1) to give an acetone:water: methanol system of 50: 40:10.
(§2) The enclosed spraying chamber consisted of a single spray nozzle mounted on a boom moving at a fixed speed and distance over stationary targets. The vertical distance from the nozzle tip to the targets was adjusted to give rates varying from 150 g/ha to 600 g/ha
(§3) Individual fully expanded primary lima bean (Phaseolus limensis) leaves were placed bottom side up on moistened pieces of filter paper in Petri dishes. The leaves were sprayed with the test solutions and allowed to dry. The dishes were infested with 5 third instar larvae of the mexican bean beetle, covered with the lids, and held at 27° C. Bean beetle control was rated by visual inspection after 48 hours. […] A rating of 0 indicated no dead larvae and normal feeding. Intermediate control was indicated by intermediate ratings.

Pyricularia oryzae = test: whole plant or invertebrate; type: in vivo; settings: protectant, 300 g/ha, greenhouse; 100 is total disease control, 0 is no disease control
Two-Spotted Spider Mite = test: Protocol 1 Two-Spotted Spider Mite (MTA) foliar spray test; type: in vivo, Tetranychus urticae; settings: percentage of mites killed 1-day post-treatment
Method: as §1, §2
A pad of moistened cotton was placed in a Petri dish. A 1-inch square section cut from a fully expanded primary lima bean (Phaseolus limensis) leaf was positioned bottom side up on the moist cotton. The leaf square was infested with approximately 50 adult female mites. The dishes were sprayed with the test solutions and held at 27° C. for mortality determination 1-day post-treatment. The percentage of mites killed were rated from 100% (all dead) to 0% (all alive).

Sphaerotheca fuliginea = test: Cucumber Powdery Mildew (CPM) protectant test in the greenhouse; type: in vivo; settings: 300 g/ha, 100 is total disease control, 0 is no disease control
Procedure, shortened: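 Protectant format: one day after spraying with test compound (A/M/W 1:1:2), cotyledon-plus-one-leaf cucumber plants were misted with Sphaerotheca spores at 2×10^5/ml. Greenhouse disease development; percent control scored at day 7 (100 = total, 0 = none).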

Southern Armyworm = test: Protocol 1 Southern Armyworm (AW) foliar spray test; type: in vivo, Spodoptera eridania
Method: as §1, §2
as §3, with “southern armyworm,” for “mexican bean beetle,”, “Armyworm” for “Bean beetle”

Compound | BB (Mexican Bean Beetle; Protocol 1, DOSE 300) | Rice Blast (RB) protectant fungicide data, percent control (Pyricularia oryzae) [percent control] | MTA (Two-Spotted Spider Mite; Protocol 1, DOSE 300) [%] | Cucumber Powdery Mildew (CPM) protectant fungicide data, percent control (Sphaerotheca fuliginea) [percent control] | AW (Southern Armyworm; Protocol 1, DOSE 300) | BB (Mexican Bean Beetle; Protocol 1, DOSE 150) | MTA (Two-Spotted Spider Mite; Protocol 1, DOSE 150) [%] | AW (Southern Armyworm; Protocol 1, DOSE 150)
COC1NC(c2ccc(Cl)cc2)=NN(CC(F)(F)F)C1=O (stereo not shown) [Compound 26] | 50 | 100 | 0 | 95 | 0 | – | – | –
CN1N=C(c2ccc(Cl)cc2)NCC1=O [Compound 27] | 75 | 80 | 0 | 99 | 0 | – | – | –
O=C1CNC(c2ccc(Cl)cc2)=NN1c1ccccc1 [Compound 29] | 0 | 90 | 90 | 90 | 0 | – | – | –
O=C1CNC(c2ccccc2)=NN1CC(F)(F)F [Compound 33] | 100 | 80 | 75 | 75 | 0 | – | – | –
O=C1CNC(c2cccc(Cl)c2)=NN1CC(F)(F)F [Compound 37] | 75 | 95 | 75 | 75 | 100 | – | – | –
CC(=O)N1CC(=O)N(CC(F)(F)F)N=C1c1ccc(Cl)cc1 [Compound 40] | 50 | 90 | 90 | 0 | 0 | – | – | –
Cc1ccc(C2=NN(CC(F)(F)F)C(=O)CN2)cc1 [Compound 41] | 50 | 100 | 0 | 50 | 0 | – | – | –
O=C1CNC(c2cc(Cl)cc(Cl)c2)=NN1CC(F)(F)F [Compound 43] | – | 99 | – | 80 | – | 0 | 0 | 50
O=C1CNC(Cc2ccccc2)=NN1CC(F)(F)F [Compound 44] | – | 85 | – | 0 | – | 0 | 0 | 75
CCC(C)N1N=C(C2CCCCC2)NCC1=O (stereo not shown) [Compound 48] | – | 50 | – | 0 | – | 0 | 75 | 0
CCCCN1N=C(c2ccc(Cl)cc2)NCC1=O [Compound 50] | – | 100 | – | 80 | – | 0 | 75 | 0
O=C1CNC(c2ccccn2)=NN1CC(F)(F)F [Compound 52] | – | 50 | – | 0 | – | 0 | 100 | 0
O=c1cnc(-c2ccc(Cl)cc2)nn1CC(F)(F)F [Compound 233] | 75 | 100 | 0 | 80 | 50 | – | – | –
CCCCCn1nc(-c2ccc(Cl)cc2)ncc1=O [Compound 234] | 0 | 100 | 100 | 80 | 0 | – | – | –
CCn1nc(-c2ccc(Cl)cc2)ncc1=O [Compound 235] | 100 | 90 | 100 | 80 | 0 | – | – | –
C=CCn1nc(-c2ccc(Cl)cc2)ncc1=O [Compound 236] | 100 | 99 | 100 | 90 | 0 | – | – | –
Cn1nc(-c2ccc(Cl)cc2)ncc1=O [Compound 238] | 75 | 50 | 100 | 90 | 0 | – | – | –
O=c1cnc(-c2ccc(Cl)cc2)nn1Cc1ccccc1 [Compound 240] | 75 | 95 | 100 | 75 | 50 | – | – | –
CC(C)(C)n1nc(-c2ccc(Cl)cc2)ncc1=O [Compound 241] | 0 | 50 | 100 | 0 | 0 | – | – | –
O=c1cnc(-c2cccc(Cl)c2)nn1CC(F)(F)F [Compound 245] | 100 | 99 | 100 | 0 | 100 | – | – | –
Cc1ccc(-c2ncc(=O)n(CC(F)(F)F)n2)cc1 [Compound 247] | 90 | 100 | 0 | 80 | 0 | – | – | –
O=c1cnc(-c2cc(Cl)cc(Cl)c2)nn1CC(F)(F)F [Compound 248] | – | 100 | – | 80 | – | 0 | 100 | 0
O=c1cnc(Cc2ccccc2)nn1CC(F)(F)F [Compound 249] | – | 85 | – | 0 | – | 0 | 90 | 100
O=c1cnc(C2CCCCC2)nn1CC(F)(F)F [Compound 251] | – | 75 | – | 0 | – | 50 | 75 | 0
O=c1cnc(-c2ccc(Cl)cc2)nn1C1CCCCC1 [Compound 256] | – | 95 | – | – | – | 0 | 90 | 0
Cc1nc(-c2ccc(Cl)cc2)nn(CC(F)(F)F)c1=O [compound 239] | 75 | – | 0 | – | 0 | – | – | –
Cn1nc(-c2ccccc2)ncc1=O [compound 242] | 90 | – | 100 | – | 0 | – | – | –
